Assays:
[1] = tested on: MCF7; assay: Anticancer activity against human MCF7 assessed as inhibition of cell growth by MTT assay; type: functional, cell-based
[2] = tested on: MDA-MB-231; assay: Anticancer activity against human MDA-MB-231 assessed as inhibition of cell growth by MTT assay; type: functional, cell-based
[3] = tested on: HEK293; assay: Cytotoxicity against human HEK293 assessed as inhibition of cell growth; type: cell-based

IC50 [1] | IC50 [2] | Compound | Activity [3]
51.6 µM | > 50 µM | COc1ccc(-c2cc3ccc(OC)c(CCC(C)C)c3oc2=O)cc1OC | 
24.5 µM | 38.1 µM | COc1ccc2cc(-c3ccc(C(F)(F)F)cc3)c(=O)oc2c1CCC(C)C | 
42.9 µM | > 50 µM | CC(C)CCc1c(O)ccc2cc(-c3ccc(C(F)(F)F)cc3)c(=O)oc12 | 
52.6 µM | > 50 µM | COc1ccc2cc(-c3ccc(F)cc3)c(=O)oc2c1CCC(C)C | 
0.24 µM | 0.31 µM | COc1ccc2cc(-c3ccc(OC(F)(F)F)cc3)c(=O)oc2c1CCC(C)C | Non-toxic
27.3 µM | 33.6 µM | COc1ccc2cc(-c3ccc(F)c(F)c3)c(=O)oc2c1CCC(C)C | 
50.2 µM | > 50 µM | COc1ccc2cc(-c3ccc(C)cc3)c(=O)oc2c1CCC(C)C | 
3.23 µM | 4.15 µM | COc1ccc2cc(-c3ccc(O)cc3)c(=O)oc2c1CCC(C)C | 
1.27 µM | 5.23 µM | COc1ccc2cc(-c3ccc(Cl)cc3)c(=O)oc2c1CCC(C)C | Non-toxic
5.7 µM | 7.42 µM | CC(C)CCc1c(O)ccc2cc(-c3ccc(OC(F)(F)F)cc3)c(=O)oc12 | 
> 50 µM | > 50 µM | COc1ccc2cc(-c3cccnc3)c(=O)oc2c1CCC(C)C | 
> 50 µM | > 50 µM | COc1ccc2c(Oc3ccc4ccc(=O)oc4c3CCC(C)C)cc(=O)oc2c1 | 
> 50 µM | > 50 µM | CC(C)CCc1c(Oc2cc(=O)oc3cc(O)ccc23)ccc2ccc(=O)oc12 | 
45.9 µM | > 50 µM | COc1ccc2c(Oc3ccc4cc(-c5ccc(C(F)(F)F)cc5)c(=O)oc4c3CCC(C)C)cc(=O)oc2c1 | 
> 50 µM | > 50 µM | CC(C)CCc1c(O)ccc2ccc(=O)oc12 | 
47 µM | > 50 µM | COc1ccc2ccc(=O)oc2c1CCC(C)C | 
25.8 µM | 30.2 µM | COc1ccc2ccc(=O)oc2c1CC=C(C)C [OSTHOLE] | 
